The test system of experiment [1] is EP4 receptor. Particulars: Suzawa et al., 2000; Shibuya et al., 2002; cited from earlier work.
Experiment [2] relates to BV-2 cells. In words: qPCR of pro-inflammatory gene expression in LPS-stimulated BV-2 cells. The class given is cell-based, murine. The conditions noted are these: LPS 10 ng/ml, 6 h. As for the experimental part:
Murine microglial-like BV-2 cells were grown in DMEM medium supplemented with 10% heat-inactivated fetal bovine serum (HyClone, Logan, Utah) and 100 units/ml each of penicillin and streptomycin and were maintained at 37° C. in a humidified atmosphere containing 5% CO2. For primary microglial cultures, cerebral cortices were isolated from postnatal day 2 Sprague-Dawley rat pups obtained from Charles River Laboratories International, Inc. (Davis, Calif.). Tissues were minced and incubated in 0.25% trypsin-EDTA, mechanically triturated in DMEM/F-12 with 10% FBS, and plated on poly-L-lysine-coated […]. Cultures were maintained for 14 days with media changes every 4 days. […]
qPCR was carried out as previously described (Liang et al., 2008). […] The mRNA level for each target gene was quantified by SYBR Green-based qPCR using the QuantiTect SYBR Green PCR kit (Qiagen). […] Quantification was performed using the standard curve method. […]
Inflammatory stimuli such as LPS can activate microglia through the CD14/TLR4 receptor complex and induce the expression of pro-inflammatory enzymes and cytokines (Fassbender et al., 2004; Walter et al., 2007). […] BV-2 cells were treated with LPS (10 ng/ml) in the presence or absence of the selective EP4 agonist AE1-329 (1 μM) for 6 h, and pro-inflammatory gene expression was measured using qPCR (see FIG. 2). […]
In general terms: Quantitative PCR measures a nucleic acid by following its amplification.

Take `COCc1ccccc1CC[C@H](O)/C=C/[C@H]1[C@H](O)CC(=O)[C@@H]1SCCCSCC(=O)O` [AE1-329]: in experiment [1], the “selectivity for the EP4 receptor” value was “selectivity for the EP4 receptor has been previously established”. In experiment [2] (AE1-329 1 μM, qPCR), the “LPS-induced mRNA of COX-2, iNOS, gp91phox, TNF-α, IL-1β and IL-6” value is “significantly blunted the induction of these genes”. In addition, the “IL-10 mRNA expression” value in experiment [2] (co-stimulation with AE1-329 1 μM) was “significantly induced expression”.

The values above are taken from US20120283293A1, “Methods of neuroprotection involving Prostaglandin E2 EP4 (PGE2 EP4) receptor activation” (The Board of Trustees of the Leland Stanford Junior …, priority 2011, published 2012).
